In PubChem BioAssay AID1963976 (Molecular Pharmacology Branch, DTP, NCI, 2024):

System: 435261-313-R-J1-PDC tumor spheroid viability
Experiment: Anticancer human tumor 435261-313-R-J1-PDC patient-derived colon adenocarcinoma cell line growth inhibition [PI3K]
Conditions: spheroids with HUVEC and MSC; for IC50: curve of first compound; for viability, T/C: stronger effect = lower value
Summary of the method: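 Viability of mixed-cell spheroids was determined after exposure to pairwise combinations, one partner being inavolisib, alpelisib, duvelisib or copanlisib. Highest tested concentration matched clinical Cmax where known and 10 microM where not, descending in half-log steps.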

[1] = second compound 0.0316 µM, first compound 0.0316 µM
[2] = second compound 0.0316 µM, first compound 0.1 µM
[3] = second compound 0.0316 µM, first compound 0.316 µM
[4] = second compound 0.0316 µM, first compound 1 µM
[5] = second compound 0.0316 µM, first compound 3.16 µM
[6] = second compound 0.0316 µM, first compound 10 µM
[7] = second compound 0.1 µM, first compound 0.0316 µM
[8] = second compound 0.1 µM, first compound 0.1 µM
[9] = second compound 0.1 µM, first compound 0.316 µM
[10] = second compound 0.1 µM, first compound 1 µM
[11] = second compound 0.1 µM, first compound 3.16 µM
[12] = second compound 0.1 µM, first compound 10 µM
[13] = second compound 0.316 µM, first compound 0.0316 µM
[14] = second compound 0.316 µM, first compound 0.1 µM
[15] = second compound 0.316 µM, first compound 0.316 µM
[16] = second compound 0.316 µM, first compound 1 µM
[17] = second compound 0.316 µM, first compound 3.16 µM
[18] = second compound 0.316 µM, first compound 10 µM
[19] = second compound 1 µM, first compound 0.0316 µM
[20] = second compound 1 µM, first compound 0.1 µM
[21] = second compound 1 µM, first compound 0.316 µM
[22] = second compound 1 µM, first compound 1 µM
[23] = second compound 1 µM, first compound 3.16 µM
[24] = second compound 1 µM, first compound 10 µM
[25] = second compound 3.16 µM, first compound 0.0316 µM
[26] = second compound 3.16 µM, first compound 0.1 µM
[27] = second compound 3.16 µM, first compound 0.316 µM
[28] = second compound 3.16 µM, first compound 1 µM
[29] = second compound 3.16 µM, first compound 3.16 µM
[30] = second compound 3.16 µM, first compound 10 µM
[31] = second compound 10 µM, first compound 0.0316 µM
[32] = second compound 10 µM, first compound 0.1 µM
[33] = second compound 10 µM, first compound 0.316 µM
[34] = second compound 10 µM, first compound 1 µM
[35] = second compound 10 µM, first compound 3.16 µM
[36] = second compound 10 µM, first compound 10 µM
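Also: spheroids exposed to compounds for 7 days.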

C#Cc1c(F)ccc2cc(O)cc(-c3ncc4c(N5CC6CCC(C5)N6)nc(OCC56CCCN5CC(F)C6)nc4c3F)c12 (stereo not given) + CC(Nc1ncnc2nc[nH]c12)c1cc2cccc(Cl)c2c(=O)n1-c1ccccc1
IC50 (second compound 0.0316 µM): 6.85 µM
IC50 (second compound 0.1 µM): > 10 µM
IC50 (second compound 0.316 µM): 7.21 µM
IC50 (second compound 1 µM): 5.49 µM
IC50 (second compound 3.16 µM): 4.51 µM
IC50 (second compound 10 µM): 0.319 µM
viability, T/C [1]: 78.7%
viability, T/C [2]: 100%
viability, T/C [3]: 98.3%
viability, T/C [4]: 89.3%
viability, T/C [5]: 81.9%
viability, T/C [6]: 34.5%
viability, T/C [7]: 97.8%
viability, T/C [8]: 109%
viability, T/C [9]: 72.2%
viability, T/C [10]: 82%
viability, T/C [11]: 68.2%
viability, T/C [12]: 56%
viability, T/C [13]: 89%
viability, T/C [14]: 85.3%
viability, T/C [15]: 79.8%
viability, T/C [16]: 105%
viability, T/C [17]: 103%
viability, T/C [18]: 33.2%
viability, T/C [19]: 94.9%
viability, T/C [20]: 70.4%
viability, T/C [21]: 82.3%
viability, T/C [22]: 103%
viability, T/C [23]: 67%
viability, T/C [24]: 31.4%
viability, T/C [25]: 62%
viability, T/C [26]: 66.2%
viability, T/C [27]: 43.3%
viability, T/C [28]: 90.6%
viability, T/C [29]: 50.1%
viability, T/C [30]: 32.7%
viability, T/C [31]: 56.5%
viability, T/C [32]: 46.9%
viability, T/C [33]: 52.3%
viability, T/C [34]: 34.9%
viability, T/C [35]: 18.8%
viability, T/C [36]: 13.7%

C=CC(=O)N1CCN(c2nc(=O)n(-c3c(C)ccnc3C(C)C)c3nc(-c4c(O)cccc4F)c(F)cc23)C(C)C1 (stereo not given) + CC(Nc1ncnc2nc[nH]c12)c1cc2cccc(Cl)c2c(=O)n1-c1ccccc1
IC50 (second compound 0.0316 µM): > 10 µM
IC50 (second compound 0.1 µM): > 10 µM
IC50 (second compound 0.316 µM): > 10 µM
IC50 (second compound 1 µM): > 10 µM
IC50 (second compound 3.16 µM): > 10 µM
IC50 (second compound 10 µM): > 10 µM
viability, T/C [1]: 67.3%
viability, T/C [2]: 84.8%
viability, T/C [3]: 103%
viability, T/C [4]: 117%
viability, T/C [5]: 116%
viability, T/C [6]: 103%
viability, T/C [7]: 78.4%
viability, T/C [8]: 79.9%
viability, T/C [9]: 103%
viability, T/C [10]: 84.3%
viability, T/C [11]: 109%
viability, T/C [12]: 103%
viability, T/C [13]: 92%
viability, T/C [14]: 95%
viability, T/C [15]: 85.4%
viability, T/C [16]: 94.1%
viability, T/C [17]: 122%
viability, T/C [18]: 108%
viability, T/C [19]: 76.3%
viability, T/C [20]: 77%
viability, T/C [21]: 102%
viability, T/C [22]: 91.9%
viability, T/C [23]: 130%
viability, T/C [24]: 109%
viability, T/C [25]: 53.7%
viability, T/C [26]: 68.8%
viability, T/C [27]: 89.2%
viability, T/C [28]: 106%
viability, T/C [29]: 87.9%
viability, T/C [30]: 79.5%
viability, T/C [31]: 49.3%
viability, T/C [32]: 49.6%
viability, T/C [33]: 54.6%
viability, T/C [34]: 55.1%
viability, T/C [35]: 74.9%
viability, T/C [36]: 66.4%

CC(Cn1ccc(-c2ccc(C#N)c(Cl)c2)n1)NC(=O)c1cc(C(C)O)[nH]n1 (stereo not given) + CC(Nc1ncnc2nc[nH]c12)c1cc2cccc(Cl)c2c(=O)n1-c1ccccc1
IC50 (second compound 0.0316 µM): > 10 µM
IC50 (second compound 0.1 µM): > 10 µM
IC50 (second compound 0.316 µM): > 10 µM
IC50 (second compound 1 µM): > 10 µM
IC50 (second compound 3.16 µM): > 10 µM
IC50 (second compound 10 µM): > 10 µM
viability, T/C [1]: 101%
viability, T/C [2]: 96.2%
viability, T/C [3]: 107%
viability, T/C [4]: 75.8%
viability, T/C [5]: 101%
viability, T/C [6]: 100%
viability, T/C [7]: 105%
viability, T/C [8]: 95.9%
viability, T/C [9]: 90.9%
viability, T/C [10]: 103%
viability, T/C [11]: 115%
viability, T/C [12]: 76.1%
viability, T/C [13]: 82.7%
viability, T/C [14]: 90.4%
viability, T/C [15]: 90.5%
viability, T/C [16]: 80.5%
viability, T/C [17]: 103%
viability, T/C [18]: 81.6%
viability, T/C [19]: 81.1%
viability, T/C [20]: 99.1%
viability, T/C [21]: 70.9%
viability, T/C [22]: 85.9%
viability, T/C [23]: 73.5%
viability, T/C [24]: 76.6%
viability, T/C [25]: 77.8%
viability, T/C [26]: 58.4%
viability, T/C [27]: 77.2%
viability, T/C [28]: 85.5%
viability, T/C [29]: 65.1%
viability, T/C [30]: 62.1%
viability, T/C [31]: 58.5%
viability, T/C [32]: 41.7%
viability, T/C [33]: 48.5%
viability, T/C [34]: 74.7%
viability, T/C [35]: 72.4%
viability, T/C [36]: 42%

CC1(C)CCC(Nc2ncc(C(F)(F)F)c(-c3c[nH]c4c(P(C)(C)=O)c(C#N)ccc34)n2)CN1 (stereo not given) + CC(Nc1ncnc2nc[nH]c12)c1cc2cccc(Cl)c2c(=O)n1-c1ccccc1
IC50 (second compound 0.0316 µM): 2.55 µM
IC50 (second compound 0.1 µM): 1.92 µM
IC50 (second compound 0.316 µM): 1.47 µM
IC50 (second compound 1 µM): 1.55 µM
IC50 (second compound 3.16 µM): < 0.0316 µM
IC50 (second compound 10 µM): < 0.0316 µM
viability, T/C [1]: 61.1%
viability, T/C [2]: 52.4%
viability, T/C [3]: 61.4%
viability, T/C [4]: 61.4%
viability, T/C [5]: 48%
viability, T/C [6]: 1.46%
viability, T/C [7]: 70.5%
viability, T/C [8]: 60.4%
viability, T/C [9]: 53.4%
viability, T/C [10]: 60.6%
viability, T/C [11]: 44.4%
viability, T/C [12]: 2.25%
viability, T/C [13]: 56.9%
viability, T/C [14]: 57.8%
viability, T/C [15]: 58.2%
viability, T/C [16]: 50.9%
viability, T/C [17]: 43.5%
viability, T/C [18]: 0.98%
viability, T/C [19]: 50.5%
viability, T/C [20]: 52.1%
viability, T/C [21]: 57.2%
viability, T/C [22]: 57%
viability, T/C [23]: 44.3%
viability, T/C [24]: 1.03%
viability, T/C [25]: 37.3%
viability, T/C [26]: 42.8%
viability, T/C [27]: 44%
viability, T/C [28]: 47.8%
viability, T/C [29]: 36.9%
viability, T/C [30]: 0.77%
viability, T/C [31]: 33.6%
viability, T/C [32]: 27.4%
viability, T/C [33]: 27.7%
viability, T/C [34]: 31.1%
viability, T/C [35]: 22.3%
viability, T/C [36]: 1.14%

Cn1nccc1Nc1nccc(-c2ccn(C(CO)c3ccc(Cl)c(F)c3)c(=O)c2)n1 (stereo not given) + CC(Nc1ncnc2nc[nH]c12)c1cc2cccc(Cl)c2c(=O)n1-c1ccccc1
IC50 (second compound 0.0316 µM): 0.737 µM
IC50 (second compound 0.1 µM): 0.416 µM
IC50 (second compound 0.316 µM): 0.362 µM
IC50 (second compound 1 µM): 0.424 µM
IC50 (second compound 3.16 µM): 0.254 µM
IC50 (second compound 10 µM): 0.0685 µM
viability, T/C [1]: 83.5%
viability, T/C [2]: 64.9%
viability, T/C [3]: 84%
viability, T/C [4]: 40.1%
viability, T/C [5]: 28.7%
viability, T/C [6]: 24.9%
viability, T/C [7]: 75.4%
viability, T/C [8]: 73.4%
viability, T/C [9]: 46.5%
viability, T/C [10]: 43.6%
viability, T/C [11]: 25.8%
viability, T/C [12]: 20.6%
viability, T/C [13]: 77.9%
viability, T/C [14]: 62.7%
viability, T/C [15]: 53.6%
viability, T/C [16]: 38%
viability, T/C [17]: 28.4%
viability, T/C [18]: 19.5%
viability, T/C [19]: 71.5%
viability, T/C [20]: 66.9%
viability, T/C [21]: 46.3%
viability, T/C [22]: 48.1%
viability, T/C [23]: 26%
viability, T/C [24]: 19.2%
viability, T/C [25]: 77.1%
viability, T/C [26]: 67.7%
viability, T/C [27]: 42.1%
viability, T/C [28]: 32.8%
viability, T/C [29]: 23.5%
viability, T/C [30]: 12.6%
viability, T/C [31]: 58.1%
viability, T/C [32]: 46.8%
viability, T/C [33]: 28.8%
viability, T/C [34]: 18.3%
viability, T/C [35]: 16.7%
viability, T/C [36]: 9.7%
